Results on nine compounds are retold here after ChEMBL document CHEMBL4184104, “Identification of novel allosteric inhibitors of mutant isocitrate dehydrogenase 1 by cross docking-based virtual screening” (Bioorg Med Chem Lett, 2018).

The test system of data set [1] is Isocitrate dehydrogenase [NADP] cytoplasmic (Homo sapiens), O75874 [R132H]. Briefly: Inhibition of IDH1 R132H mutant (unknown origin) expressed in HEK293T cells assessed as D2-HG level at 50 uM after 72 hrs relative to control. Format: cell-based. As to conditions: values are per cent of control.
Data set [2] relates to Isocitrate dehydrogenase [NADP] cytoplasmic (Homo sapiens), O75874 [R132C]. Briefly: Inhibition of IDH1 R132C mutant (unknown origin) expressed in HEK293T cells assessed as D2-HG level at 50 uM after 72 hrs relative to control. It counts as cell-based. As to conditions: values are per cent of control.
In data set [3] the test system is Isocitrate dehydrogenase [NADP] cytoplasmic (Homo sapiens), O75874 [R132H]. In words: Inhibition of IDH1 R132H mutant (unknown origin) expressed in HEK293T cells assessed as D2-HG level at 10 uM after 72 hrs relative to control. Format: cell-based. Conditions: values are per cent of control.
Data set [4] deals with Isocitrate dehydrogenase [NADP] cytoplasmic (Homo sapiens), O75874 [R132C]. In words: Inhibition of IDH1 R132C mutant (unknown origin) expressed in HEK293T cells assessed as D2-HG level at 10 uM after 72 hrs relative to control. Format: cell-based. As to conditions: values are per cent of control.
In a further data set the test system is HEK-293T. In words: (§1) Cytotoxicity against HEK293T cells harboring pMXs-IDH1wt-IRES-BsdRs assessed as cell survival at 50 uM after 72 hrs by CellTiterGlo assay relative to control. Format: cell-based. Conditions: human, hek-293t, 72 h, 50 µM. Background: In ATP-based viability assays light output follows the ATP content of the culture.
The target in data set [5] is Isocitrate dehydrogenase [NADP] cytoplasmic (Homo sapiens, UniProt O75874, R132H). In words: Inhibition of IDH1 R132H mutant (unknown origin) expressed in HEK293T cells assessed as reduction in D2-HG level after 30 mins by resazurin-based fluorescence assay. It counts as cell-based. On the technique in general: Resazurin is reduced to fluorescent resorufin, in cell work by metabolically active cells.

Data set [6] deals with Isocitrate dehydrogenase [NADP] cytoplasmic (Homo sapiens, UniProt O75874, R132C). In words: Inhibition of IDH1 R132C mutant (unknown origin) expressed in HEK293T cells assessed as reduction in D2-HG level after 30 mins by resazurin-based fluorescence assay. It counts as cell-based.
The nature of data set [7]: Cytotoxicity against HEK293T cells harboring pMXs-IDH1wt-IRES-BsdRs assessed as cell survival at 10 uM after 72 hrs by CellTiterGlo assay relative to control. Format: cell-based, HEK-293T. As to conditions: human, read-out: Survival.
Data set [8] is described as follows: as §1. As to conditions: human, HEK293T cells harboring pMXs-IDH1wt-IRES-BsdRs; read-out: Survival. Format: cell-based, HEK-293T.
Data set [9] in a line: Effective permeability of the compound at 25 ug/ml after 18 hrs by BBB-PAMPA method. It counts as ADME. As to conditions: read-out: Peff. Background: PAMPA measures passive passage across an artificial lipid membrane.

Chain of Isocitrate dehydrogenase [NADP] cytoplasmic (Homo sapiens), O75874 [R132H] (O75874 whole entry R132H): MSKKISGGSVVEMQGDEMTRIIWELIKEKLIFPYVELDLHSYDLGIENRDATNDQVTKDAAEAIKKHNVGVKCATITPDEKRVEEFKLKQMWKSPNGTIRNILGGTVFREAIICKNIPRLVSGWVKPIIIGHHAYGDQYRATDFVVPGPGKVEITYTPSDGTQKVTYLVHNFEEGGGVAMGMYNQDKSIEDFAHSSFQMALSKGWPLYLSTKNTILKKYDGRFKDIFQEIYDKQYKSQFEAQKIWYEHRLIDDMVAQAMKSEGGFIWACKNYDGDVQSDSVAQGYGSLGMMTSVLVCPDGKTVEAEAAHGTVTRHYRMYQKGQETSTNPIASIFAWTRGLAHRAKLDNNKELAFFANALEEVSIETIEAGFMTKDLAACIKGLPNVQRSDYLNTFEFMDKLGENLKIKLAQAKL
Chain of Isocitrate dehydrogenase [NADP] cytoplasmic (Homo sapiens), O75874 [R132C] (O75874 whole entry R132C): as the sequence (O75874 whole entry R132H) above, with H132C counted along it
Chain of Isocitrate dehydrogenase [NADP] cytoplasmic (Homo sapiens, UniProt O75874, R132H) (O75874 2-414 R132H limits assumed): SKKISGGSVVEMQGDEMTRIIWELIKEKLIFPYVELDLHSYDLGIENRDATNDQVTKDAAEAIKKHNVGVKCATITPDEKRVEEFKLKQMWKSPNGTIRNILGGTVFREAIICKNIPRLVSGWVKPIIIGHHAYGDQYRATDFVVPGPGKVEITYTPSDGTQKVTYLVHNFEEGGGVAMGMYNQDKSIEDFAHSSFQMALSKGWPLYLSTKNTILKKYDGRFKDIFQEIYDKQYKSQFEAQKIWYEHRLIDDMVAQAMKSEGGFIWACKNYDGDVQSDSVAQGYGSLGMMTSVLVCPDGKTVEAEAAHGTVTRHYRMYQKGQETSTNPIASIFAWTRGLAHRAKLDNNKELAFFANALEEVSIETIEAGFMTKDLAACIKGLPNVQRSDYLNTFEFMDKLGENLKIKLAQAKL
Chain of Isocitrate dehydrogenase [NADP] cytoplasmic (Homo sapiens, UniProt O75874, R132C) (O75874 2-414 R132C limits assumed): as the sequence (O75874 2-414 R132H limits assumed) above, with H131C counted along it

For `COC(=O)c1ccccc1NC(=O)CNCn1cnc2ccccc21`, the response, % of control in data set [1] turned out to be 66.3%; in [2], 50.4%; in data set [3], 86.2%; in data set [4], 86.1%. The Activity result in the data set with HEK-293T was “Non-Toxic”.

As for `Cc1ccccc1C(C(=O)NC1CCCCC1)N(C(=O)Cn1ccnc1C)c1cccc(F)c1` (configuration not stated), the response, % of control in data set [1] worked out at 0.4%; in data set [2], 0.9%; in data set [3] it was 1.3%; in data set [4] it was 13.3%.

For `COc1ccccc1NC(=O)c1c(NCc2cccnc2)sc2c1CC[C@H](C)C2`, the response, % of control is 32% in [1], 34.7% in data set [2], 96.7% in [3] and 123% in data set [4]. The Activity entry with HEK-293T was “Non-Toxic”.

As for `COC(=O)C1C(=O)C2=C(CC1C)Nc1ccccc1NC2c1c[nH]c2ccccc12` (configuration not stated), the IC50 in data set [5] and in [6] was 50 µM each time.

Turning to `O=C(Nc1cccc(NC(=O)c2cccc(S(=O)(=O)N3CCCCC3)c2)c1)c1ccc(Br)cc1`, the response, % of control in data set [1] is 59.5%; in data set [2] it was 109%; in [3], 58.2%; in data set [4], 61.1%. The Activity result with HEK-293T is recorded as “Non-Toxic”.

As to `CC(C)CCOc1cccc(C(=O)Nc2ccc(C(=O)Nc3cccc4ccccc34)cc2)c1`, in [7], the viability at 72 h, 10 µM is 91.3%. For the same compound, the response, % of control in data set [1] amounted to 49.5%; in [2] it was 43.6%; in data set [3] it was 54.9%; in data set [4], 48.4%. The viability at 72 h, 50 µM in data set [8] stood at 88.6%. For the same compound, in [9], the Papp at 18 h, 25 ug/ml was 8.15 ×10⁻⁶ cm/s.

`Cc1ccc(NC(=O)c2cc([N+](=O)[O-])cc3c2-c2ccc([N+](=O)[O-])cc2C3=O)cc1`: the results for the response, % of control in data set [1], in [2] and in data set [3] were 72.5%, 52.7% and 103%, respectively. The Activity entry with HEK-293T is “Non-Toxic”.

Turning to `CC(O)c1cccc(NC(=O)c2cnn3c2NC(c2ccccc2)CC3C(F)(F)F)c1` (configuration not stated), the response, % of control in [1] was 39.9%; in data set [2], 40.9%; in data set [3], 91.3%; in data set [4] it was 79.3%. Moreover, the Activity result with HEK-293T is on record as “Non-Toxic”.

Consider `COc1cccc(C(=O)Nc2cccc(OCC(=O)c3ccccc3)c2)c1`, for which the response, % of control in [1] was 73.7%; in data set [2], 103%; in data set [3], 94.6%; in [4], 138%. Besides, in the data set on HEK-293T, the Activity entry is on record as “Non-Toxic”.

Broadly, the IC50 is the midpoint of a concentration-inhibition curve.
